The values below come from patent publication US20120077737A1, “HEPATITIS C INHIBITOR COMPOUNDS” (priority 2009, published 2012).

Read-outs that look alike come from different tables or passages of the source.

The test system of experiment [1] is HCV genotype 1a subgenomic replicon with NS3 resistance mutation D168V. Nature of the experiment: HCV replicon RNA replication assay, D168V 1a. Type of experiment: cell-based, HCV genotype 1a (strain H77), Huh-7 cells. The settings on record: Hepatitis C virus, read-out: D168V 1a Ec50 (nM). Background: Replicon systems follow genome replication, usually without infectious particles.

The test system of experiment [2] is HCV genotype 1b subgenomic replicon with NS3 resistance mutation D168V. Nature of the experiment: HCV replicon RNA replication assay, D168V 1b. Type of experiment: cell-based, HCV genotype 1b (Con-1), Huh-7 cells. The following applies: Hepatitis C virus, read-out: D168V 1b Ec50 (nM).
The subject of experiment [3] is HCVPV1a subgenomic replicon (wild type 1a). Nature of the experiment: HCV replicon RNA replication assay, wild type 1a. Type of experiment: cell-based, HCV genotype 1a (strain H77), Huh-7 cells. The following applies: Hepatitis C virus, read-out: WT 1a Ec50.
Experiment [4] has as its system HCV genotype 1a subgenomic replicon with NS3 resistance mutation R155K. Nature of the experiment: HCV replicon RNA replication assay, R155K 1a. Type of experiment: cell-based, HCV genotype 1a (strain H77), Huh-7 cells. The following applies: Hepatitis C virus, read-out: R155K 1a Ec50 (nM).
Experiment [5] deals with HCVPV1b subgenomic replicon (wild type 1b). Put plainly: HCV replicon RNA replication assay, wild type 1b. The experiment is classed as cell-based, HCV genotype 1b (Con-1), Huh-7 cells. The settings on record: Hepatitis C virus, read-out: WT 1b Ec50.
[6] abbreviates: Table 1, luciferase replicon, Huh-7, 72 h.
[7] abbreviates: Table 2, clinical comparators, wildtype genotype 1a.
Where [8] appears, read: Table 2, clinical comparators, wildtype genotype 1b.

For the molecule `COc1c(F)ccc2c(O[C@@H]3C[C@H]4C(=O)N[C@]5(C(=O)NS(=O)(=O)C6(C)CC6)C[C@H]5/C=C\CCCCC[C@H](NC(=O)c5ccn(CC(F)F)n5)C(=O)N4C3)cc(OC(C)C)nc12` [Compound 1022, (2R,6S,12Z,13aS,14aR,16aS)-6-({[1-(2,2-difluoroethyl)-1H-pyrazol-3-yl]carbonyl}amino)-2-{[7-fluoro-8-methoxy-2-(propan-2-yloxy)quinolin-4-yl]oxy}-N-[(1-methylcyclopropyl)sulfonyl]-5,16-dioxo-1,2,3,6,7,8,9,10,11,13a,14,15,16,16a-tetradecahydrocyclopropa[e]pyrrolo[1,2-a][1,4]diazacyclopentadecine-14a(5H)-carboxamide], the EC50 in experiment [1] (Huh-7, 72 h) was 0.97 nM; in experiment [2] (Huh-7, 72 h), 0.62 nM; in experiment [3] (setting [6]) it was 0.42 nM; in experiment [4] (Huh-7, 72 h), 1.3 nM; in experiment [5] (setting [6]), 0.41 nM.
As to `COc1c(F)ccc2c(O[C@@H]3C[C@H]4C(=O)N[C@]5(C(=O)NS(=O)(=O)C6(C)CC6)C[C@H]5/C=C\CCCCC[C@H](NC(=O)c5ccn(C(C)C)n5)C(=O)N4C3)cc(OC(C)C)nc12` [Compound 1023, (2R,6S,12Z,13aS,14aR,16aS)-2-{[7-fluoro-8-methoxy-2-(propan-2-yloxy)quinolin-4-yl]oxy}-N-[(1-methylcyclopropyl)sulfonyl]-5,16-dioxo-6-({[1-(propan-2-yl)-1H-pyrazol-3-yl]carbonyl}amino)-1,2,3,6,7,8,9,10,11,13a,14,15,16,16a-tetradecahydrocyclopropa[e]pyrrolo[1,2-a][1,4]diazacyclopentadecine-14a(5H)-carboxamide], the EC50 amounted to 0.83 nM in experiment [1] (Huh-7, 72 h); 0.52 nM in experiment [2] (Huh-7, 72 h); 0.37 nM in experiment [3] (setting [6]); 3.1 nM in experiment [4] (Huh-7, 72 h); 0.4 nM in experiment [5] (setting [6]).
With `Cc1ccc2c(O[C@@H]3C[C@H]4C(=O)N[C@]5(C(=O)NS(=O)(=O)C6(C)CC6)C[C@H]5/C=C\CCCCC[C@H](NC(=O)c5ccn(C)n5)C(=O)N4C3)cc(OC(C)C)nc2c1Br` [Compound 1024, (2R,6S,12Z,13aS,14aR,16aS)-2-{[8-bromo-7-methyl-2-(propan-2-yloxy)quinolin-4-yl]oxy}-N-[(1-methylcyclopropyl)sulfonyl]-6-{[(1-methyl-1H-pyrazol-3-yl)carbonyl]amino}-5,16-dioxo-1,2,3,6,7,8,9,10,11,13a,14,15,16,16a-tetradecahydrocyclopropa[e]pyrrolo[1,2-a][1,4]diazacyclopentadecine-14a(5H)-carboxamide], the EC50 was found to be 1.9 nM in experiment [1] (Huh-7, 72 h); 0.09 nM in experiment [2] (Huh-7, 72 h); 0.1 nM in experiment [3] (setting [6]); 9.3 nM in experiment [4] (Huh-7, 72 h); 0.13 nM in experiment [5] (setting [6]).
Take `CC(C)Oc1cc(O[C@@H]2C[C@H]3C(=O)N[C@]4(C(=O)NS(=O)(=O)C5(C)CC5)C[C@H]4/C=C\CCCCC[C@H](NC(=O)c4ccn(C)n4)C(=O)N3C2)c2ccc(Cl)c(Cl)c2n1` [Compound 1025, (2R,6S,12Z,13aS,14aR,16aS)-2-{[7,8-dichloro-2-(propan-2-yloxy)quinolin-4-yl]oxy}-N-[(1-methylcyclopropyl)sulfonyl]-6-{[(1-methyl-1H-pyrazol-3-yl)carbonyl]amino}-5,16-dioxo-1,2,3,6,7,8,9,10,11,13a,14,15,16,16a-tetradecahydrocyclopropa[e]pyrrolo[1,2-a][1,4]diazacyclopentadecine-14a(5H)-carboxamide]: the EC50 in experiment [1] (Huh-7, 72 h) was found to be 3.8 nM; in experiment [2] (Huh-7, 72 h) it was 0.11 nM; in experiment [3] (setting [6]), 0.22 nM; in experiment [4] (Huh-7, 72 h), 9.3 nM; in experiment [5] (setting [6]), 0.17 nM.
For the molecule `COc1c(F)ccc2c(O[C@@H]3C[C@H]4C(=O)N[C@]5(C(=O)NS(=O)(=O)C6(C)CC6)C[C@H]5/C=C\CCCCC[C@H](NC(=O)c5ccn(CC(F)(F)F)n5)C(=O)N4C3)cc(OC(C)C)nc12` [Compound 1026, (2R,6S,12Z,13aS,14aR,16aS)-2-{[7-fluoro-8-methoxy-2-(propan-2-yloxy)quinolin-4-yl]oxy}-N-[(1-methylcyclopropyl)sulfonyl]-5,16-dioxo-6-({[1-(2,2,2-trifluoroethyl)-1H-pyrazol-3-yl]carbonyl}amino)-1,2,3,6,7,8,9,10,11,13a,14,15,16,16a-tetradecahydrocyclopropa[e]pyrrolo[1,2-a][1,4]diazacyclopentadecine-14a(5H)-carboxamide], the EC50 stood at 0.7 nM in experiment [1] (Huh-7, 72 h); 0.34 nM in experiment [2] (Huh-7, 72 h); 0.52 nM in experiment [3] (setting [6]); 1.6 nM in experiment [4] (Huh-7, 72 h); 0.31 nM in experiment [5] (setting [6]).
`COc1c(F)ccc2c(O[C@@H]3C[C@H]4C(=O)N[C@]5(C(=O)NS(=O)(=O)C6(C)CC6)C[C@H]5/C=C\CCCCC[C@H](NC(=O)c5ccn(C(F)F)n5)C(=O)N4C3)cc(OC(C)C)nc12` [Compound 1027, (2R,6S,12Z,13aS,14aR,16aS)-6-({[1-(difluoromethyl)-1H-pyrazol-3-yl]carbonyl}amino)-2-{[7-fluoro-8-methoxy-2-(propan-2-yloxy)quinolin-4-yl]oxy}-N-[(1-methylcyclopropyl)sulfonyl]-5,16-dioxo-1,2,3,6,7,8,9,10,11,13a,14,15,16,16a-tetradecahydrocyclopropa[e]pyrrolo[1,2-a][1,4]diazacyclopentadecine-14a(5H)-carboxamide]: the EC50 in experiment [1] (Huh-7, 72 h) came out at 2.2 nM; in experiment [2] (Huh-7, 72 h), 0.39 nM; in experiment [3] (setting [6]) it was 0.47 nM; in experiment [4] (Huh-7, 72 h), 4.7 nM; in experiment [5] (setting [6]), 0.33 nM.
With `COc1c(F)ccc2c(O[C@@H]3C[C@H]4C(=O)N[C@]5(C(=O)NS(=O)(=O)C6(C)CC6)C[C@H]5/C=C\CCCCC[C@H](NC(=O)c5ccc(C)s5)C(=O)N4C3)cc(OC(C)C)nc12` [Compound 1028, (2R,6S,12Z,13aS,14aR,16aS)-2-{[7-fluoro-8-methoxy-2-(propan-2-yloxy)quinolin-4-yl]oxy}-N-[(1-methylcyclopropyl)sulfonyl]-6-{[(5-methylthiophen-2-yl)carbonyl]amino}-5,16-dioxo-1,2,3,6,7,8,9,10,11,13a,14,15,16,16a-tetradecahydrocyclopropa[e]pyrrolo[1,2-a][1,4]diazacyclopentadecine-14a(5H)-carboxamide], the EC50 in experiment [1] (Huh-7, 72 h) came out at 5.5 nM; in experiment [2] (Huh-7, 72 h), 0.52 nM; in experiment [3] (setting [6]) it was 1.1 nM; in experiment [4] (Huh-7, 72 h), 6.5 nM; in experiment [5] (setting [6]) it was 0.69 nM.
Turning to `CC(C)(C)OC(=O)N[C@H]1CCCCC/C=C\[C@@H]2C[C@@]2(C(=O)NS(=O)(=O)C2CC2)NC(=O)[C@@H]2C[C@@H](OC(=O)N3Cc4cccc(F)c4C3)CN2C1=O` [reference compound], the EC50 in experiment [1] is 180 nM; in experiment [2] it was 120 nM; in experiment [3] (setting [7]), 2.1 nM; in experiment [4], 690 nM; in experiment [5] (setting [8]), 5.4 nM.
For `COc1ccc2c(O[C@@H]3C[C@H]4C(=O)N[C@@]5(C(=O)NS(=O)(=O)C6CC6)C[C@@H]5/C=C\CCCCN(C)C(=O)[C@@H]4C3)cc(-c3nc(C(C)C)cs3)nc2c1C` [reference compound], in that order: 3500 nM, 4400 nM, 0.7 nM, 300 nM and 1.2 nM.

By EC50 is commonly meant the concentration that produces a half-maximal response.
